“And” between values parts separate entries of the source, which are not always exact repeats. Equal values may be shown once. “Also recorded” adds a separate entry of the source. Read-outs that look alike come from different tables or passages of the source.
Key:
human OMPDC [1] = target: T1, human OMPDC (Homo sapiens, UniProt P11172); experiment: ITC-based steady-state kinetics / activity assay of OMPDC; format: biochemical; details: wild-type
T1 construct: Overexpression of human OMPDC in Escherichia coli; made in house; host or cells: Escherichia coli
Experimental: (§1) Steady-state kinetics of OMPDC conversion and thermodynamics of ligand binding were conducted using a PEAK-ITC instrument (Malvern Panalytical) in 20 mM HEPES/NaOH, pH 7.4, at 25 °C. The substrate OMP trisodium salt and the ligands UMP, GMP, XMP, and TMP were purchased from Sigma-Aldrich (purity >99%).
(§2) For steady-state kinetic analysis, 20 μM OMPDC and 1 mM OMP were used at a cell temperature of 25 °C. The reference power was set to 8 μcal/s, the stirring power to 750 rpm, and two injections of 10 μL each were performed. For competitive inhibition studies, the substrate concentration remained the same while the ligand concentration was varied. The experiments are summarized below:
OMPDC with OMP and 5-methyl OMP: 70/100 μM OMPDC, 1 mM OMP, 5-methyl OMP (1 mM), buffer (HEPES 0.02 M, pH 7.4), reference power ITC 8 μcal/s, stirring speed 750 rpm, cell temperature 25 °C, 2 injections of 10 μL each.
OMPDC with OMP: 20 μM OMPDC, 1 mM OMP, buffer (HEPES 0.02 M, pH 7.4), reference power ITC 8 μcal/s, stirring speed 750 rpm, cell temperature 25 °C, 2 injections of 10 μL each.
The data sets were evaluated via Microsoft Excel, and the decarboxylation rates were fitted in OriginPro 2020 according to the Hill equation.

human OMPDC [2] = target: T1, human OMPDC; experiment: X-ray crystallography, soaking / cocrystallization of ligands; details: wild-type, in crystallo
Experimental: OMPDC crystals were grown for at least 3 days at 20 °C using the hanging drop diffusion method with Crystalgen SuperClear Plates (Jena Bioscience) as previously described. , The crystals were gradually transferred to increasing concentrations of cryo-solution (100 mM Tris/HCl pH 8.0, 2 M (NH4)2SO4, 10 mM glutathione pH 8.0, 0.25–1 M L-proline). After the crystals were adjusted to 1 M L-proline cryo-solution, various ligands were used for soaking experiments. […] The crystals were flash-cooled in liquid nitrogen and stored at these temperatures until the diffraction experiments were conducted.
OMPDC was also cocrystallized with XMP, UMP, and GMP. For this, a final protein concentration of 4.5 mg/mL and 25 mM ligand were used in 20 mM HEPES/NaOH, pH 7.4. The solution was mixed in a 1 + 1 ratio with the reservoir solution. Plates were stored at 20 °C, and crystals grew overnight. After 1 week, crystals were transferred to cryo-solution supplemented with 25 mM XMP/UMP/GMP. The cocrystallized crystals were flash-cooled in liquid nitrogen and stored until use.
The structures of OMPDC with the different ligands were determined by processing the diffraction data with the XDS program suite. […]

OMPDC Thr321Asn [3] = target: T2, OMPDC Thr321Asn (Homo sapiens, UniProt P11172, T321N); experiment: Kinetic ITC with OMPDC variant Thr321Asn; format: biochemical
T2 construct: OMPDC Thr321Asn was generated via site-directed mutagenesis; made in house
Experimental: as §2, with “varied.” for “varied. The experiments are summarized below:”

human OMPDC [4] = target: T1, human OMPDC; experiment: Thermodynamic ITC ligand binding to human OMPDC wild-type; details: for binding detected by thermodynamic ITC: 25 °C; for ΔH (first binding phase, K D1) / ΔH (second binding phase, K D2): Sedphat analysis
Experimental: as §1
Isothermal titration calorimetry (ITC) is used to determine the dissociation constant (K D) of a protein–ligand interaction by measuring the heat released or absorbed during binding. In practice, the ligand is sequentially titrated into a solution containing the protein in the reaction cell. As the binding sites become saturated over time, no additional heat changes are detected. The resulting thermogram is then converted into a binding isotherm, which can be used to calculate all relevant thermodynamic parameters. Thereby, the (K D) follows the general reaction, where the enzyme (E), by addition of a ligand (L), forms an enzyme-ligand complex (EL) E+L↔KaEL
The following parameters for the binding experiments were used:
OMPDC with UMP: 195 μM OMPDC, 2.08 mM UMP, buffer (HEPES 0.02 M, pH 7.4), reference power ITC 8 μcal/s, stirring speed 750 rpm, cell temperature 25 °C, one injection of 0.4 μL and 18 injections of 2 μL UMP, 120 s spacing.*
OMPDC with 5-methyl OMP: 195 μM OMPDC, 4.61 mM 5-methyl OMP, buffer (HEPES 0.02 M, pH 7.4), reference power ITC 10 μcal/s, stirring speed 750 rpm, cell temperature 25 °C, 1 injection of 0.4 μL and 18 injections of 2 μL 5-methyl OMP, 120 s spacing.*
OMPDC with dTMP: 186 μM OMPDC, 5 mM dTMP, buffer (HEPES 0.02 M, pH 7.4), reference power ITC 8 μcal/s, stirring speed 750 rpm, cell temperature 25 °C, 1 injection of 0.4 μL and 18 injections of 2 μL dTMP, 120 s spacing.
OMPDC with XMP: 194 μM OMPDC, 1.5 mM XMP, buffer (HEPES 0.02 M, pH 7.4), reference power ITC 8 μcal/s, stirring speed 750 rpm, cell temperature 25 °C, 1 injection of 0.4 μL and 18 injections of 2 μL XMP 120 s spacing.*
OMPDC with YMP: 200 μM OMPDC, 2.03 mM YMP, buffer (HEPES 0.02 M, pH 7.4), reference power ITC 8 μcal/s, stirring speed 750 rpm, cell temperature 25 °C, 1 injection of 0.4 μL and 18 injections of 2 μL YMP, 120 s spacing.
OMPDC with CMP: 200 μM OMPDC, 1.80 mM CMP, buffer (HEPES 0.02 M, pH 7.4), reference power ITC 10 μcal/s, stirring speed 750 rpm, cell temperature 25 °C, 1 injection of 0.4 μL and 18 injections of 2 μL CMP, 120 s spacing.*
OMPDC with 2′-deoxy UMP: 211 μM OMPDC, 9.04 mM 2′-deoxy UMP, buffer (HEPES 0.02 M, pH 7.4), reference power ITC 10 μcal/s, stirring speed 750 rpm, cell temperature 25 °C, 1 injection of 0.4 μL and 18 injections of 2 μL 2′-deoxy UMP, 120 s spacing.
OMPDC with GMP: 184 μM OMPDC, 10 mM GMP, buffer (HEPES 0.02 M, pH 7.4), reference power ITC 8 μcal/s, stirring speed 750 rpm, cell temperature 25 °C, 1 injection of 0.4 μL and 18 injections of 2 μL GMP, 120 s spacing.
(§3) The raw files were analyzed using the software provided by the instrument manufacturer. Marked data sets (*) were integrated using NitPic version 1.2.7 and fitted with Sedphat version 14.0. Final graphs were created with OriginPro 2020.

OMPDC Thr321Asn [5] = target: T2, OMPDC Thr321Asn; experiment: Thermodynamic ITC ligand binding to OMPDC variant Thr321Asn
Experimental: as §1
OMPDC T321N′ with dTMP: 211 μM OMPDC T321N′, 2 mM dTMP, buffer (HEPES 0.02 M, pH 7.4), reference power ITC 10 μcal/s, stirring speed 750 rpm, cell temperature 25 °C, 1 injection of 0.4 μL and 18 injections of 2 μL dTMP, 120 s spacing.
as §3

[6] = ITC at 25 °C, wild-type, first of two dissociation constants (Sedphat analysis), read-out: K D1
[7] = ITC at 25 °C, wild-type, second of two dissociation constants (Sedphat analysis), read-out: K D2
[8] = ITC at 25 °C, 20 mM HEPES pH 7.4, wild-type, single dissociation constant, read-out: K D

For `O=C(O)c1cc(=O)[nH]c(=O)n1[C@H]1C[C@H](O)[C@@H](COP(=O)(O)O)O1` [2′-deoxy OMP], which enzymatic turnover (human OMPDC [1]) is on record?
Its enzymatic turnover is “no binding or turnover was detected”.

And the “ligand bound in crystal structure” value (human OMPDC [2])?
The value was “does not bind”.

What about the enzymatic activity (OMPDC Thr321Asn [3]) of the same compound?
The enzymatic activity was “too low to be reliably measured”.

With `O=c1ccn([C@H]2C[C@H](O)[C@@H](COP(=O)(O)O)O2)c(=O)[nH]1` [2′-deoxy UMP, 2′-deoxy uridine 5′-monophosphate] as the compound, how does the “binding detected by thermodynamic ITC” value (human OMPDC [4]; wild-type) read?
Its value is “no binding”.

What about the “binding detected by thermodynamic ITC” value (human OMPDC [4]; wild-type, listed as deoxy UMP) of the same compound?
The value was “No binding could be detected”.

`O=c1[nH]c(=O)c2ncn([C@@H]3O[C@H](COP(=O)(O)O)[C@@H](O)[C@H]3O)c2[nH]1` [XMP, xanthosine-5′-monophosphate] was tested. Which “ΔH (first binding phase, K D1)” value (human OMPDC [4]; ITC at 25 °C, wild-type) did it give?
Its value is “–1.86 ± 0.10 kcal/mol”.

And the “ΔH (second binding phase, K D2)” value (human OMPDC [4]; ITC at 25 °C, wild-type)?
The value was “–5.57 ± 0.07 kcal/mol”.

And the Kd (human OMPDC [4]; [6])?
The Kd was 0.21 ± 0.03 µM.

And the Kd (human OMPDC [4]; [7])?
Its Kd is 0.18 ± 0.02 µM.

What about the Kd (human OMPDC [4]; ITC, wild-type, first of two dissociation constants, read-out: Dissociation constant KD1) of the same compound?
Its Kd is 0.213 µM.

And the Kd (human OMPDC [4]; ITC, wild-type, second of two dissociation constants, read-out: K D2)?
The Kd was 0.182 ± 0.018 µM.

How did the “binding detected by thermodynamic ITC” value (human OMPDC [4]; wild-type) turn out when `Nc1nc2c(ncn2[C@@H]2O[C@H](COP(=O)(O)O)[C@@H](O)[C@H]2O)c(=O)[nH]1` [GMP, guanosine-5′-monophosphate] was run?
The value was “No binding could be detected; also recorded: no measurable binding heat was detected; also recorded: did not bind at all”.

And the “ligand bound in crystal structure” value (human OMPDC [2])?
The value was “no ligand was bound to the active site”.

Which results are given for `Cc1c(C(=O)O)n(C2OC(COP(=O)(O)O)C(O)C2O)c(=O)[nH]c1=O` (centres unmarked) [5-MeOMP, 5-methyl OMP]?
enzymatic turnover (human OMPDC [1]): unable to detect enzymatic turnover; Kd (human OMPDC [4]; [8]): 0.404 µM and 0.4 µM; n (stoichiometry) (human OMPDC [4]; ITC at 25 °C, wild-type): 1.54 ± 0.01; ΔG (human OMPDC [4]; ITC at 25 °C, wild-type): –8.78 ± 0.19 kcal/mol; ΔH (human OMPDC [4]; ITC at 25 °C, wild-type): –1.20 ± 0.03 kcal/mol; –TΔS (human OMPDC [4]; ITC at 25 °C, wild-type): –7.58 ± 0.26 kcal/mol

With `O=c1ccn([C@@H]2O[C@H](COP(=O)(O)O)[C@@H](O)[C@H]2O)c(=O)[nH]1` [UMP, uridine 5′-monophosphate] as the compound, how does the “n (stoichiometry)” value (human OMPDC [4]; ITC at 25 °C, wild-type) read?
The value was 0.98 ± 0.01.

What about the “ΔH (first binding phase, K D1)” value (human OMPDC [4]; ITC at 25 °C, wild-type) of the same compound?
The value was “–1.03 ± 0.06 kcal/mol”.

And the “ΔH (second binding phase, K D2)” value (human OMPDC [4]; ITC at 25 °C, wild-type)?
Its value is “–2.1 ± 0.1 kcal/mol”.

What about the Kd (human OMPDC [4]; [6]) of the same compound?
Its Kd is 2.6 ± 1.2 µM.

What about the Kd (human OMPDC [4]; [7]) of the same compound?
The Kd was 6.7 ± 0.8 µM.

What about the Kd (human OMPDC [4]; ITC, wild-type, second of two dissociation constants, read-out: Dissociation constant KD2) of the same compound?
Its Kd is 6.73 µM.

Which results are given for `Cc1cn([C@H]2C[C@H](O)[C@@H](COP(=O)(O)O)O2)c(=O)[nH]c1=O` [dTMP, thymidine-5′-monophosphate]?
Kd (human OMPDC [4]; [8]): 119 µM; n (stoichiometry) (human OMPDC [4]; ITC at 25 °C, wild-type): 0.64 ± 0.03; ΔG (human OMPDC [4]; ITC at 25 °C, wild-type): –5.37 ± 0.09 kcal/mol; ΔH (human OMPDC [4]; ITC at 25 °C, wild-type): –4.74 ± 0.29 kcal/mol; –TΔS (human OMPDC [4]; ITC at 25 °C, wild-type): –0.63 ± 0.88 kcal/mol; Kd (human OMPDC [4]; ITC at 25 °C, wild-type, single dissociation constant, read-out: Dissociation constant (KD)): 118 µM; Kd (OMPDC Thr321Asn [5]; ITC): 0.431 ± 0.044 µM; Kd (OMPDC Thr321Asn [5]; ITC at 25 °C): 0.43 ± 0.04 µM; n (stoichiometry) (OMPDC Thr321Asn [5]; ITC at 25 °C): 0.64 ± 0.02; ΔG (OMPDC Thr321Asn [5]; ITC at 25 °C): –8.69 ± 0.08 kcal/mol; ΔH (OMPDC Thr321Asn [5]; ITC at 25 °C): –14.3 ± 0.1 kcal/mol; –TΔS (OMPDC Thr321Asn [5]; ITC at 25 °C): 5.60 ± 0.06 kcal/mol

Which “ΔH (first binding phase, K D1)” value (human OMPDC [4]; ITC at 25 °C, wild-type) does the source give for `Nc1ccn([C@@H]2O[C@H](COP(=O)(O)O)[C@@H](O)[C@H]2O)c(=O)n1` [CMP, cytidine-5′-monophosphate] here?
Its value is “–2.30 ± 0.08 kcal/mol”.

What about the “ΔH (second binding phase, K D2)” value (human OMPDC [4]; ITC at 25 °C, wild-type) of the same compound?
The value was “–7.08 ± 0.56 kcal/mol”.

What about the Kd (human OMPDC [4]; [6]) of the same compound?
The Kd was 4.73 ± 1.09 µM.

What about the Kd (human OMPDC [4]; [7]) of the same compound?
The Kd was 8.33 ± 1.06 µM.
